This note sets out measurements from ChEMBL document CHEMBL1154763, “Antitrypanosomal activity of 1,2-dihydroquinolin-6-ols and their ester derivatives” (J Med Chem, 2010).

The subject of one data set is Mus musculus. Briefly: Toxicity in Trypanosoma brucei STIB795 infected in NMRI mouse African trypanosomiasis model assessed as overt signs of at 50 mg/kg, ip qd administered for 4 consecutive days from day 3 to 6 postinfection measured up to 30 days. The note with it: in vivo, 720 h.
Data set [1] concerns Trypanosoma brucei rhodesiense. Briefly: Antitrypanosomal activity against bloodstream Trypanosoma brucei rhodesiense STIB 900 after 70 hrs by alamar blue assay. It is filed as functional, organism-based. The note with it: STIB 900, 70 h. (Resazurin is reduced to fluorescent resorufin, in cell work by metabolically active cells.)
The subject of data set [2] is Trypanosoma brucei brucei. Briefly: Antitrypanosomal activity against Trypanosoma brucei brucei STIB 795 infected in NMRI mouse African trypanosomiasis model assessed as parasite free mouse survival at 50 mg/kg, ip qd administered for 4 consecutive days from day 3 to 6 postinfection measured up to 30 days. The note with it: route intraperitoneal.
Data set [3] deals with Trypanosoma brucei brucei. Kind of data set: Induction of reactive oxygen species generation in Trypanosoma brucei brucei MITat1,2,variant 221 preincubated for 24 hrs by CM-H2DCFDA fluorescence assay.
Another data set deals with L6. Kind of data set: Cytotoxicity against rat L6 cells after 70 hrs by alamar blue assay. It is filed as cell-based. The note with it: L6, 70 h, read-out: IC50.
Data set [4] is described as follows: Selectivity index, ratio of IC50 for rat L6 cells to IC50 for bloodstream Trypanosoma brucei rhodesiense STIB 900. Type of data set: toxicity, cell-based. The note with it: read-out: Ratio IC50.
Data set [5] concerns Trypanosoma brucei brucei. Kind of data set: Induction of reactive oxygen species generation in Trypanosoma brucei brucei MITat1,2,variant 221 at 0.1 uM preincubated for 24 hrs by CM-H2DCFDA fluorescence assay.
Data set [6] has as its system Trypanosoma brucei brucei. Kind of data set: Induction of reactive oxygen species generation in Trypanosoma brucei brucei MITat1,2,variant 221 at 10 uM preincubated for 24 hrs by CM-H2DCFDA fluorescence assay.
Data set [7] concerns Trypanosoma brucei brucei. Briefly: Induction of reactive oxygen species generation in Trypanosoma brucei brucei MITat1,2,variant 221 at 1 uM preincubated for 24 hrs by CM-H2DCFDA fluorescence assay.
The subject of data set [8] is Trypanosoma brucei brucei. Briefly: Antitrypanosomal activity against Trypanosoma brucei brucei STIB 795 infected in NMRI mouse African trypanosomiasis model assessed as parasite free mouse survival at 10 mg/kg, ip qd administered for 4 consecutive days from day 3 to 6 postinfection measured up to 30 days. Conditions: STIB795.

The source made the active and inactive calls. The rule behind the calls is not given here.

Take `CC(=O)Oc1ccc2c(c1)C(C)=CC(C)(C)N2Cc1ccccc1`: the Activity result with Mus musculus is “Non-toxic”; in data set [3] it was “Dose-dependent effect”. Moreover, the IC50 in data set [1] worked out at 0.014 µM; with L6, 24 µM. The Survival in data set [2] was greater than 14 days. Also, in data set [4], the selectivity ratio was 1700.

In the case of `CC1=CC(C)(C)N(Cc2ccccc2)c2ccccc21`, the IC50 in [1] came out at 57 µM; with L6, 110 µM. For the same molecule, the selectivity ratio in [4] came to 2. Further, the outcome in [5], in [6] and in data set [7] was inactive.

On to `N=C(N)c1ccc(/N=N/Nc2ccc(C(=N)N)cc2)cc1`, for which the outcome in data set [8] was Active.

For `CC(=O)Oc1ccc2c(c1)C(C)=CC(C)(C)N2Cc1ccc(F)cc1`, in the data set on Mus musculus, the Activity result is given as “Non-toxic”. The IC50 is 0.041 µM in [1] and 29 µM in the data set on L6. Also, the Survival in [2] was 8.75 days. Also, the selectivity ratio in data set [4] turned out to be 710.

With `CC(=O)Oc1ccc2c(c1)N(Cc1ccccc1)C(C)(C)C=C2C`, the half-maximal inhibitory concentration (IC50) in [1] came out at 4.4 µM; in the data set on L6 it was 71 µM. Moreover, the selectivity ratio in data set [4] came to 16. In addition, the result in [5], in [6] and in data set [7] was inactive.

Usually IC50 stands for the midpoint of a concentration-inhibition curve.
